The EC50 is the concentration at which the effect is half-maximal. One may read the IC50 as the concentration needed to halve the response being measured. A higher IC50 goes with weaker potency in that assay.

Values joined by “and” are separate entries in the source; they are usually repeats but may differ in a detail not shown here. Identical values can stand only once. Active and inactive are the calls of the source.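 The calls were made as follows: active = compounds giving half or more protection of infected cells from virus-caused growth loss, again on retest; inactive = the rest.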 Where a SMILES comes first, the peptide text is derived from it.

Data on 76 compounds can be found in PubChem BioAssay AID179 (DTP/NCI, 2004).

The test system of the test is CEM cells HIV-1 protection, formazan growth assay. The test can be described thus: NCI AIDS Antiviral Assay. The following applies: for IC50: measured here: growth of uninfected CEM cells. In short, it runs like this:
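Soluble formazan readout of cell growth; CEM cells ± HIV-1; 5 drug concs. ≥50% protection → retest; ≥50% again = moderately active; reproducible 100% = confirmed active.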

Turning to `CCOC(=O)C(C/C(C)=C/c1ccccc1)C(=O)OCC`, the EC50 was greater than 200 µM and the half-maximal inhibitory concentration (IC50) is 182 µM.
`Clc1ccc(-c2nn3c(C45CC6CC(CC(C6)C4)C5)nnc3s2)cc1`: the EC50 is greater than 200 µM and the half-inhibitory concentration (IC50) is greater than 200 µM.
Regarding `CS(=O)(=O)O/N=c1/cc(-c2ccccc2)oc2ccccc12`, the EC50 was greater than 200 µM and the IC50 is greater than 200 µM.
As to `NC(CC(=O)O)C(=O)NC1Cc2ccccc2C1=O` (centres undefined), the EC50 was greater than 200 µM and the IC50 was found to be 97.7 µM.
Taken in the same sequence, the figures for `CCC(C)C(NC(=O)C(CC(C)C)NC(=O)C(N)Cc1c[nH]c2ccccc12)C(=O)NC(Cc1c[nH]c2ccccc12)C(=O)O` (centres undefined) (H-WLIW-OH; configuration not given here) were greater than 407 µM and greater than 407 µM.
Consider `CCOC(=O)C(=O)Nc1cccc(C)c1C`, for which the EC50 was greater than 813 µM and the IC50 is greater than 813 µM.
Regarding `CCC(C)[C@H](NC(=O)N[C@H](C)c1ccccc1)C(=O)OC` (some centres undefined), the EC50 was greater than 200 µM and the half-maximal inhibitory concentration (IC50) was greater than 200 µM.
Take `CN(c1ccccc1Cl)S(=O)(=O)c1ccccc1`: the EC50 is greater than 200 µM and the half-inhibitory concentration (IC50) turned out to be 70.8 µM.
For `Nc1cc(CO)cc(Nc2c3ccccc3nc3ccccc23)c1` the same measures were greater than 2 µM and 0.347 µM.
For the compound `CCN(CC)[Se]c1ccccc1`, the outcome was inactive.
Regarding `CC1(C)C=CC2=C(O1)C(=O)c1ccccc1C2=O`, the EC50 is greater than 200 µM; the half-inhibitory concentration (IC50) is 32.4 µM and 26.9 µM.
On to `CCC12CN(C(=O)OC)C3C(Br)C1CCC(=O)C32` (centres undefined), for which the EC50 was greater than 200 µM and the IC50 came out at 178 µM.
Regarding `NP(=O)(Nc1ccccc1)Nc1ccccc1`, the EC50 was greater than 200 µM and the IC50 is greater than 200 µM.
Consider `CC(=O)/C=c1\[nH]/c(=C\C=C\c2ccccc2)c(=O)n1/C=C1\C(=O)Oc2ccccc2C1=O`, for which the EC50 was greater than 200 µM and the 50% inhibitory concentration (IC50) turned out to be 166 µM.
For `COC(=O)c1ccc(C)cc1C1CN=NC12Cc1cc(C)ccc1C2=O` (centres undefined) the same measures were greater than 200 µM and 9.77 µM.
For `CCCCc1ccc(-n2c3nc(=O)n(C)c(=O)c-3nc3ccccc32)cc1`, the result was inactive.
`O=C(CCl)Nc1ccc(SSc2ccc(NC(=O)CCl)cc2)cc1`: the EC50 was greater than 2 µM and the concentration for half-maximal inhibition (IC50) came out at 1.35 µM.
For `O=C(O)c1cc(S(=O)(=O)O)c2cccnc2c1O` the same measures were greater than 200 µM and greater than 200 µM.
Taken in the same sequence, the figures for `O=C(NCCCl)SCCO` were greater than 1350 µM and greater than 1350 µM.
As to `COC(=O)c1cc(C)ccc1C1CN=NC12Cc1c(C)cc(C)cc1C2=O` (centres undefined), the EC50 is greater than 200 µM and the 50% inhibitory concentration (IC50) is 29.5 µM.
For `O=C(CCCCC1CCSS1)N(C(=O)NC1CCCCC1)C1CCCCC1` (centres undefined) the same measures were greater than 200 µM and 10.5 µM.
As for `CC(C)(N=NC(C)(C)C(=O)NCCO)C(=O)NCCO`, the EC50 was greater than 200 µM and the IC50 was greater than 200 µM.
`O=C(Cc1ccccc1)NN1C(=O)C(Cl)C1c1cccc([N+](=O)[O-])c1` (centres undefined): the EC50 was greater than 14.5 µM and the half-inhibitory concentration (IC50) was 8.71 µM.
For `CCOC(=O)CC(=O)Nc1cccc2sc3ncccc3c(=O)c12` the same measures were greater than 200 µM and 30.2 µM.
Taken in the same sequence, the figures for `C1N2CN3CN1CN(C2)C3` were greater than 200 µM and 151 µM.
Taken in the same sequence, the figures for `COc1ccc(/C=C/c2ccnc3ccccc23)cc1OC` were 0.0631 µM and 50.1 µM.
`CC(C)C[C@H]1[C@@H](OCc2ccccc2)COS(=O)(=O)N1[C@H](C)c1ccccc1`: the EC50 is greater than 200 µM and the IC50 was 11.2 µM.
Taken in the same sequence, the figures for `Cc1cc(S(=O)(=O)Nc2cc(N)[nH]n2)c(SCc2nc(N)nc(N(C)C)n2)cc1Cl` were greater than 200 µM and greater than 200 µM.
For the compound `O=[N+]([O-])c1cccc(N=Cc2ccccc2O)c1`, the EC50 was greater than 200 µM and the 50% inhibitory concentration (IC50) was 91.2 µM.
For `[Cl-].[Cl-].[Pt+4].[S-]c1ncccn1.[S-]c1ncccn1` the same measures were greater than 100 µM and 0.355 µM.
Take `Cc1cccc(N=Nc2c(C)nn(C(=O)c3ccc(O)cc3)c2C)c1`: the result was inactive.
As to `CCOc1ccc(NC(=O)CC2C(=O)Nc3ccccc3S2(=O)=O)cc1` (centres undefined), the EC50 was greater than 19.5 µM and the half-maximal inhibitory concentration (IC50) is greater than 19.5 µM.
`Cc1cc2c3c(c1)C(=O)CCN3CCC2=O`: the result was inactive.
On to `Cc1cccc2c1CCC21OC(=O)c2c1cc(F)c1ccccc21` (centres undefined), for which the EC50 was greater than 39.8 µM and the IC50 came to 14.8 µM.
For `CN1C(=O)C2CCCC(=O)N2c2cccnc21` (centres undefined) the same measures were greater than 200 µM and greater than 200 µM.
For `COc1cc(C)cc2ccc(Br)c(O)c12` the same measures were greater than 200 µM and greater than 200 µM.
For `Cc1c(C(=O)CC(=O)C(=O)Nc2cccc(C(F)(F)F)c2)[n+](=O)c2ccccc2n1[O-]` the same measures were greater than 40.7 µM and 3.55 µM.
For the compound `CCOP(=S)(NN=C1CCCCC1)OCC`, the EC50 was greater than 200 µM and the IC50 is 112 µM.
Consider `Cc1c(C)c(C)c(-n2[nH]c(=O)n(C)c2=O)c(C)c1C`, for which the EC50 is greater than 200 µM and the IC50 is greater than 200 µM.
Take `CSc1nc(NC2OCC(O)C(O)C2O)c(N)c(=O)n1C` (centres undefined): the result was inactive.
Consider `Cc1ccsc1/C=N/NC1=NCCN1`, for which the EC50 is greater than 200 µM and the IC50 was greater than 100 µM.
Regarding `O=C1OCCCCCCOC(=O)c2ccccc2SSc2ccccc21`, the EC50 is greater than 200 µM and the IC50 was greater than 200 µM.
Take `CN1C=C(C(N)=O)C2CC(O)[C@@](NC(=O)CS(N)(=O)=O)(C(=O)O)C2C1` (some centres undefined): the EC50 is greater than 166 µM and the concentration for half-maximal inhibition (IC50) was 3.72 µM.
For `Cc1cc2ccccc2n1S(=O)(=O)c1ccccc1` the same measures were greater than 95.5 µM and greater than 95.5 µM.
On to `CN(C)CCSC(=Nc1ccccc1)N1C=COC=C1`, for which the EC50 is greater than 871 µM and the IC50 amounted to 44.7 µM.
In the case of `CC(C)Cn1c(N)c(N=O)c(=O)n(C)c1=O`, the EC50 was greater than 200 µM and the IC50 is greater than 200 µM.
For the compound `Cc1ccc(S(=O)(=O)OI(C#CC(C)(C)C)c2ccccc2)cc1`, the EC50 was greater than 200 µM and the IC50 was 1.05 µM.
Taken in the same sequence, the figures for `COc1ccc(-c2oc3ccc(C)cc3c(=O)c2O)cc1` were greater than 52.5 µM and greater than 52.5 µM.
Taken in the same sequence, the figures for `Nc1nc(N)c(C2=CCN(Cc3ccccc3)CC2)c(=O)[nH]1` were greater than 200 µM and greater than 200 µM.
Regarding `Cc1ccc(S(=O)(=O)N2C[C@H](O)C[C@H]2C(=O)O)cc1`, the result was inactive.
Consider `COc1cc(-c2cc(-c3cc([N+](=O)[O-])c(/C=N/NC(=O)c4ccncc4)o3)ccc2OC)ccc1C`, for which the EC50 is greater than 269 µM and the half-inhibitory concentration (IC50) amounted to 55 µM.
For the compound `Clc1ccc(-c2c3nc(c(-c4ccc(Cl)cc4)c4ccc([nH]4)c(-c4ccc(Cl)cc4)c4nc(c(-c5ccc(Cl)cc5)c5ccc2[nH]5)C=C4)C=C3)cc1`, the EC50 was greater than 200 µM and the IC50 is greater than 200 µM.
Regarding `Cc1cccc(C(C)O)n1` (centres undefined), the EC50 was greater than 200 µM and the IC50 is greater than 200 µM.
As to `CC(C)c1ccc(/C=C2\CSCC3=C2N=C2SCC(=O)N2C3c2ccc(C(C)C)cc2)cc1` (centres undefined), the EC50 was greater than 200 µM and the IC50 turned out to be 107 µM.
`O=[N+]([O-])c1ccc(O)c(C=NCC2CCCN3CCCCC23)c1` (centres undefined): the EC50 was greater than 200 µM and the IC50 amounted to 39.8 µM.
For `O=C(Cn1c2c(c3ccccc31)CCCC2)N1CCCC1` the same measures were greater than 200 µM and greater than 200 µM.
For `Cc1c(-c2cnccn2)ssc1=S`, the EC50 is greater than 200 µM and the 50% inhibitory concentration (IC50) is 102 µM.
As for `O=C1C2=Nc3ccccc3C(O)N2c2ccccc21` (centres undefined), the EC50 was greater than 200 µM and the IC50 worked out at 69.2 µM.
Regarding `COc1ccc(C(c2ccccc2C(=O)O)c2ccc(OC)c3ccccc23)c2ccccc12`, the EC50 was greater than 41.7 µM and the half-inhibitory concentration (IC50) was determined as 10.7 µM.
With `CC(C)=CCN1CC(C)C(=O)Nc2cc(Cl)ccc21` (centres undefined), the EC50 was greater than 132 µM and the 50% inhibitory concentration (IC50) was 28.2 µM.
With `CCOC(=O)c1cc2c(nc1N)/C(=C/c1ccccc1)CCCC2`, the EC50 is greater than 200 µM and the IC50 stood at 10.7 µM.
Taken in the same sequence, the figures for `CCOC(=O)Cc1cc(=O)oc2cc(O)ccc12` were greater than 200 µM and 166 µM.
Taken in the same sequence, the figures for `C=CCn1c(=S)[nH]c2c(Cl)cc(Cl)cc2c1=O` were greater than 200 µM and 107 µM.
For `CCOC(=O)c1cnc2sc3ccc4ccccc4c3n2c1=O`, the EC50 was greater than 27.5 µM and the concentration for half-maximal inhibition (IC50) is greater than 27.5 µM.
Regarding `O=S1(=O)OCCOS(=O)(=O)C1I`, the EC50 was greater than 759 µM and the IC50 amounted to 132 µM.
As to `Nc1ccc2c(c1)C(=P(c1ccccc1)(c1ccccc1)c1ccccc1)c1ccccc1-2`, the EC50 was greater than 200 µM and the 50% inhibitory concentration (IC50) was 10.7 µM.
Turning to `O=C(Nc1ccc(Cl)c(Cl)c1)NN1CCCCCC1`, the outcome was inactive.
Consider `CCCCCCCCCCCCCCCCCCOCC(C[N+]1(C)CCC(O)CC1)OCC` (centres undefined), for which the EC50 is greater than 0.912 µM and the IC50 was greater than 0.912 µM.
For `O[C@@]1(C#Cc2ccc3c(c2)OCO3)CCC[C@H]1NCc1ccccc1`, the EC50 is greater than 200 µM and the 50% inhibitory concentration (IC50) was 36.3 µM.
With `C=Cc1ccc(CC)cn1`, the EC50 is greater than 200 µM and the IC50 is greater than 200 µM.
As for `C=CCOc1cccc(C2(O)c3ccccc3C3=NCCCN32)c1` (centres undefined), the EC50 was greater than 200 µM and the IC50 was 37.2 µM.
For the compound `CCC(=O)OC1CCn2c1nc1c2C(=O)C(C)=C(N2CC2)C1=O` (centres undefined), the EC50 is greater than 200 µM and the IC50 came out at 0.575 µM.
Taken in the same sequence, the figures for `N#C/C(=C\N1CC(=O)NC1=S)C(N)=O` were greater than 200 µM and greater than 200 µM.
For `COc1ccc(/C=C/C(CC(NO)c2ccc(OC)cc2)=N\O)cc1` (centres undefined) the same measures were greater than 200 µM and greater than 100 µM.
`O=[N+]([O-])Cc1cnc2nncn2n1`: the result was inactive.
As to `Cc1c(C)n(COCCO)c2ncnc(N)c12`, the EC50 is greater than 200 µM and the IC50 is greater than 200 µM.
